For 17 molecules, IC50 results are on record in patent US11759462B2, “Spirocyclic compounds as tryptophan hydroxylase inhibitors” (priority 2013, dated 2023).

In this experiment the target is T1, Recombinant human TPH1 (MBP tagged) (Homo sapiens, UniProt P17752).
T1 construct: cloning full length human TPH1 cDNA in to a bacterial pMAL-c5E expression vector; made in house; host or cells: E. coli BL21 (DE3)
T1 sequence (P17752 1-444): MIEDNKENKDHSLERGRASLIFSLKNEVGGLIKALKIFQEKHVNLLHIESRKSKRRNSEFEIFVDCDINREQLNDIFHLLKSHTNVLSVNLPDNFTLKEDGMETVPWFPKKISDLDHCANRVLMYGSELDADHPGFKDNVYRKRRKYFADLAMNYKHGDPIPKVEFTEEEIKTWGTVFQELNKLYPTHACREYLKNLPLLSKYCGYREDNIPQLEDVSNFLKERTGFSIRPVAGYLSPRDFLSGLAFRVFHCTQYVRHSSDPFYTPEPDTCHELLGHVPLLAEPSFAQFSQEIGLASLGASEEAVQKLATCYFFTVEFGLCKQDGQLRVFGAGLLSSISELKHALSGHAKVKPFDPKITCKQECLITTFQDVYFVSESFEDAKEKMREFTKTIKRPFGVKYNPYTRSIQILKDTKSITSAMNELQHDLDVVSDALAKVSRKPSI
Nature of the experiment: TPH1 in vitro inhibition assay (kinetic fluorescence). Format: biochemical. Conditions: read-out: TPH1 Range (TPH1 inhibition IC50). Put shortly:
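Final mix: 15 nM MBP-TPH1, 30 μM Trp, 36 μM 6-methyltetrahydropterin, 25 μM ferrous ammonium sulfate, 50 mM MES pH 7.1, 1% DMSO, room temperature.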

Some results are limits rather than exact numbers.

One may read the IC50 as the concentration that gives 50% inhibition.

As to `CCc1ccc(-n2ccc(C)n2)c([C@@H](Oc2cc(N3CCC4(CC3)CN[C@H](C(=O)O)C4)nc(N)n2)C(F)(F)F)c1` [Example 22a, (S)-8-(2-amino-6-((R)-1-(5-ethyl-2-(3-methyl-H-pyrazol-1-yl)phenyl)-2,2,2-trifluoroethoxy)pyrimidin-4-yl)-2,8-diazaspiro[4.5]decane-3-carboxylic acid], the IC50 is less than 50 nM.
Under `CCCc1ccc(-n2ccc(C)n2)c([C@@H](Oc2cc(N3CCC4(CC3)CN[C@H](C(=O)O)C4)nc(N)n2)C(F)(F)F)c1` [Example 22b] stands less than 50 nM.
Under `CCOC(=O)c1ccc(-n2ccc(C)n2)c([C@@H](Oc2cc(N3CCC4(CC3)CN[C@H](C(=O)O)C4)nc(N)n2)C(F)(F)F)c1` [Example 23, (S)-8-(2-Amino-6-((R)-1-(5-(ethoxycarbonyl)-2-(3-methyl-1H-pyrazol-1-yl)phenyl)-2,2,2-trifluoroethoxy)pyrimidin-4-yl)-2,8-diazaspiro[4.5]decane-3-carboxylic acid] stands less than 50 nM; under `Cc1ccn(-c2ccc(C(=O)O)cc2[C@@H](Oc2cc(N3CCC4(CC3)CN[C@H](C(=O)O)C4)nc(N)n2)C(F)(F)F)n1` [Example 24, (S)-8-(2-Amino-6-((R)-1-(5-carboxy-2-(3-methyl-H-pyrazol-1-yl)phenyl)-2,2,2-trifluoroethoxy)pyrimidin-4-yl)-2,8-diazaspiro[4.5]decane-3-carboxylic acid], 50 to 300 nM.
Next, `Cc1ccn(-c2cc(CO)ccc2[C@@H](Oc2cc(N3CCC4(CC3)CN[C@H](C(=O)O)C4)nc(N)n2)C(F)(F)F)n1` [Example 25, (S)-8-(2-Amino-6-((R)-2,2,2-trifluoro-1-(4-(hydroxymethyl)-2-(3-methyl-H-pyrazol-1-yl)phenyl)ethoxy)pyrimidin-4-yl)-2,8-diazaspiro[4.5]decane-3-carboxylic acid]: less than 50 nM; `Cc1ccn(-c2cc(CN(C)C)ccc2[C@@H](Oc2cc(N3CCC4(CC3)CN[C@H](C(=O)O)C4)nc(N)n2)C(F)(F)F)n1` [Example 26, (S)-8-(2-amino-6-((R)-1-(4-((dimethylamino)methyl)-2-(3-methyl-H-pyrazol-1-yl)phenyl)-2,2,2-trifluoroethoxy)pyrimidin-4-yl)-2,8-diazaspiro[4.5]decane-3-carboxylic acid]: 3000 to 10000 nM; `Cc1ccn(-c2cc(Br)ccc2[C@@H](Oc2cc(N3CCC4(CC3)CN[C@H](C(=O)O)C4)nc(C)n2)C(F)(F)F)n1` [Example 27, (S)-8-(6-((R)-1-(4-Bromo-2-(3-methyl-1H-pyrazol-1-yl)phenyl)-2,2,2-trifluoroethoxy)-2-methylpyrimidin-4-yl)-2,8-diazaspiro[4.5]decane-3-carboxylic acid]: 50 to 300 nM.
Take `COc1cc(-c2ccc([C@@H](Oc3cc(N4CCC5(CC4)CN[C@H](C(=O)O)C5)nc(C)n3)C(F)(F)F)c(-n3ccc(C)n3)c2)ccn1` [Example 29a, (S)-8-(2-methyl-6-((R)-2,2,2-trifluoro-1-(4-(2-methoxypyridin-4-yl)-2-(3-methyl-1H-pyrazol-1-yl)phenyl)ethoxy)pyrimidin-4-yl)-2,8-diazaspiro[4.5]decane-3-carboxylic acid]: the IC50 was less than 50 nM.
As to `Cc1ccn(-c2cc(-c3ccc(S(C)(=O)=O)cc3)ccc2[C@@H](Oc2cc(N3CCC4(CC3)CN[C@H](C(=O)O)C4)nc(C)n2)C(F)(F)F)n1` [Example 29b, (S)-8-(2-methyl-6-((R)-2,2,2-trifluoro-1-(3-(3-methyl-1H-pyrazol-1-yl)-4′-(methylsulfonyl)-[1,1′-biphenyl]-4-yl)ethoxy)pyrimidin-4-yl)-2,8-diazaspiro[4.5]decane-3-carboxylic acid], the IC50 was less than 50 nM.
Under `Cc1ccn(-c2cc(-c3ccc(F)c(F)c3)ccc2[C@@H](Oc2cc(N3CCC4(CC3)CN[C@H](C(=O)O)C4)nc(C)n2)C(F)(F)F)n1` [Example 29c, (S)-8-(6-((R)-1-(3′,4′-difluoro-3-(3-methyl-1H-pyrazol-1-yl)-[1,1′-biphenyl]-4-yl)-2,2,2-trifluoroethoxy)-2-methylpyrimidin-4-yl)-2,8-diazaspiro[4.5]decane-3-carboxylic acid] stands 50 to 300 nM.
Next, `Cc1ccn(-c2cc(-c3ccc(C)c(C)c3)ccc2[C@@H](Oc2cc(N3CCC4(CC3)CN[C@H](C(=O)O)C4)nc(C)n2)C(F)(F)F)n1` [Example 29d, (S)-8-(6-((R)-1-(3′,4′-dimethyl-3-(3-methyl-1H-pyrazol-1-yl)-[1,1′-biphenyl]-4-yl)-2,2,2-trifluoroethoxy)-2-methylpyrimidin-4-yl)-2,8-diazaspiro[4.5]decane-3-carboxylic acid]: less than 50 nM.
Under `CCOC(=O)c1cccc(-c2ccc([C@@H](Oc3cc(N4CCC5(CC4)CN[C@H](C(=O)O)C5)nc(C)n3)C(F)(F)F)c(-n3ccc(C)n3)c2)c1` [Example 29e, (S)-8-(6-((R)-1-(3′-(ethoxycarbonyl)-3-(3-methyl-1H-pyrazol-1-yl)-[1,1′-biphenyl]-4-yl)-2,2,2-trifluoroethoxy)-2-methylpyrimidin-4-yl)-2,8-diazaspiro[4.5]decane-3-carboxylic acid] stands 50 to 300 nM; under `COc1ccc(-c2ccc([C@@H](Oc3cc(N4CCC5(CC4)CN[C@H](C(=O)O)C5)nc(C)n3)C(F)(F)F)c(-n3ccc(C)n3)c2)cn1` [Example 29f, (S)-8-(2-methyl-6-((R)-2,2,2-trifluoro-1-(4-(6-methoxypyridin-3-yl)-2-(3-methyl-1H-pyrazol-1-yl)phenyl)ethoxy)pyrimidin-4-yl)-2,8-diazaspiro[4.5]decane-3-carboxylic acid], less than 50 nM; under `COc1ncc(-c2ccc([C@@H](Oc3cc(N4CCC5(CC4)CN[C@H](C(=O)O)C5)nc(C)n3)C(F)(F)F)c(-n3ccc(C)n3)c2)cn1` [Example 29g, (S)-8-(2-methyl-6-((R)-2,2,2-trifluoro-1-(4-(2-methoxypyrimidin-5-yl)-2-(3-methyl-1H-pyrazol-1-yl)phenyl)ethoxy)pyrimidin-4-yl)-2,8-diazaspiro[4.5]decane-3-carboxylic acid], less than 50 nM.
In the case of `COc1ccc(-c2ccc([C@@H](Oc3cc(N4CCC5(CC4)CN[C@H](C(=O)O)C5)nc(C)n3)C(F)(F)F)c(-n3ccc(C)n3)c2)c(OC)c1` [Example 29h, (S)-8-(6-((R)-1-(2′,4′-dimethoxy-3-(3-methyl-1H-pyrazol-1-yl)-[1,1′-biphenyl]-4-yl)-2,2,2-trifluoroethoxy)-2-methylpyrimidin-4-yl)-2,8-diazaspiro[4.5]decane-3-carboxylic acid], the IC50 is less than 50 nM.
Next, `CCOC(=O)c1ccc(-c2ccc([C@@H](Oc3cc(N4CCC5(CC4)CN[C@H](C(=O)O)C5)nc(C)n3)C(F)(F)F)c(-n3ccc(C)n3)c2)cc1` [Example 29i, (S)-8-(6-((R)-1-(4′-(ethoxycarbonyl)-3-(3-methyl-1H-pyrazol-1-yl)-[1,1′-biphenyl]-4-yl)-2,2,2-trifluoroethoxy)-2-methylpyrimidin-4-yl)-2,8-diazaspiro[4.5]decane-3-carboxylic acid]: less than 50 nM; `Cc1ccn(-c2cc(-c3ccc(C(=O)N(C)C)cc3)ccc2[C@@H](Oc2cc(N3CCC4(CC3)CN[C@H](C(=O)O)C4)nc(C)n2)C(F)(F)F)n1` [Example 29j, (S)-8-(6-((R)-1-(4′-(dimethylcarbamoyl)-3-(3-methyl-1H-pyrazol-1-yl)-[1,1′-biphenyl]-4-yl)-2,2,2-trifluoroethoxy)-2-methylpyrimidin-4-yl)-2,8-diazaspiro[4.5]decane-3-carboxylic acid]: less than 50 nM.
